# According to publication PMC12980303, “Development of a novel risk score reflecting the relative harm potential of synthetic cannabinoids based on prevalence estimates, well‐documented intoxication cases and basic pharmacological data” (Addiction (Abingdon, England), 2025):
# Legend:
# hCB1 receptor = hCB1 receptor (Homo sapiens, UniProt P21554); experiment: competitive [3H]CP‐55940 radioligand binding assay (hCB1 receptor affinity); settings: Ki [nM] (95% CI), [3H]CP‐55940 competition, hCB1 membrane preparations (HEK293‐EBNA), Cheng–Prusoff; 95% CI in brackets
# Sequence of hCB1 receptor (P21554 whole entry): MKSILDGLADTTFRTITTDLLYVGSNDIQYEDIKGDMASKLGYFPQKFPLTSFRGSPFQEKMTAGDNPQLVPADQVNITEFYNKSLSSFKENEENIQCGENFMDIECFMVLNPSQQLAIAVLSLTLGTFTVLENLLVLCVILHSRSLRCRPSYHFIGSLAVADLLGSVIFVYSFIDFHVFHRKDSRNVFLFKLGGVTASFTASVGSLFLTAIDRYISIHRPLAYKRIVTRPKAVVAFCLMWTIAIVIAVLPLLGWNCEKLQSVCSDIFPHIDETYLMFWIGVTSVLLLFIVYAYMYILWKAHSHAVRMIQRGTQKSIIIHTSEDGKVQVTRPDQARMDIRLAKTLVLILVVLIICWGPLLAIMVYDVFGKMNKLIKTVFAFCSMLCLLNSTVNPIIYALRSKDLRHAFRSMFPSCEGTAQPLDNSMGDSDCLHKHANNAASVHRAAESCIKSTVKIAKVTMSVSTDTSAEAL
# Protocol: Receptor assays were performed on three different days and each concentration was tested in duplicate.
# From the IC50, the respective Ki values were calculated using the Cheng–Prusoff equation [39].
# [1] = LC–MS/MS analysis of serum and urine samples of intoxication cases; assay type: in vivo, human; settings: for Concentration in serum: patient serum; for Finding in urine: patient urine
# Protocol: The data on intoxication cases used for the development of this risk score were obtained from a prospective study. This study included patients who were treated in an emergency department room following the consumption of an NPS. Clinical symptoms and follow‐up information were documented using a structured questionnaire completed by the attending physicians. The methodology has been previously published. Residual serum (obtained from venous blood) and urine samples, accompanied by the completed questionnaires, were sent to the Poisons Information Center Freiburg for further analysis. The toxicological analyses of serum and urine samples were conducted at the Institute of Forensic Medicine Freiburg. No data was available on previous consumption patterns or potential development of tolerance after continued misuse. The study was conducted in accordance with the Declaration of Helsinki and approved by the regional ethics committee of the University of Freiburg (no. 235/13_130683). The intoxication cases included in this study are those in which SCRA use was confirmed by liquid chromatography tandem mass spectrometry (LC–MS/MS).
# Serum/blood and urine analyses were conducted at the Institute of Forensic Medicine Freiburg using previously published LC–MS/MS methods, that were modified by adding further analytes present in ‘legal‐high’ products (‘herbal blends’, ‘C‐liquids’ or ‘research chemicals’), and covered approximately 100 different SCRAs. Detailed information can be found in the Supporting Information.
# Urine samples were analysed according to previously published and validated method by Franz et al.^2. For sample preparation 0.5 mL of phosphate buffer (pH 6) and 30 μL of β-glucuronidase were added to 0.5 mL of urine. Incubation was for 60 min at 45°C. This was followed by protein precipitation using 1.5 mL acetonitrile containing the internal standard (c = 2 ng/mL) and 0.56 mL 10 M ammonium formate solution, followed by shaking and centrifugation. 1 mL of the organic phase was transferred into an autosampler vial and evaporated to dryness under N2. The samples were reconstituted in 200 μL mobile phase.
# Urine sample analysis was performed on a Dionex UltiMate® 3000RS UHPLC (Thermo Scientific, Dreieich, Germany) coupled to an API 5000^TM triple quadrupole instrument with a TurboIonSpray® interface (Sciex, Darmstadt, Germany). Separation was performed on a Luna C18 100 Å (150 x 2 mm, 5 μm) column with the mobile phase consisting of 0.2% HCOOH and 2 mmol/L NH^4+HCOO^− in water (A) and acetonitrile (B).
smiles,measurement,setting,value
CC(C)C(NC(=O)c1nn(CC2CCCCC2)c2ccccc12)C(N)=O (stereo not drawn),Ki,hCB1 receptor,0.145 nM
same,Concentration in serum,[1]; intoxication case A (AB‐CHMINACA),9.5 ng/mL
same,Finding in urine,[1]; intoxication case A,positive
same,Concentration in serum,[1]; intoxication case B (AB‐CHMINACA),27 ng/mL
same,Concentration in serum,"[1]; intoxication case B (AB‐CHMINACA), listed as AB-CHMINACA",ca. 27 ng/mL
same,Finding in urine,[1]; intoxication case B,positive
